Data reported in patent US10160771B2, “Hepatitis C virus inhibitors and uses thereof in preparation of drugs” (priority 2014, dated 2018).

Assays:
[1] = system: HCV genotype 1a (HCV-1a) replicon cells; assay: HCV genotype 1a replicon luciferase assay (EC50); format: cell-based, hepatitis C virus genotype 1a (H77 clone); conditions: 3 days, luciferase (Bright-Glo)
Outline: (§1)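 H77-derived 1a (K1691R, K2040R, S2204I) or Con1-derived 1b (E1202G, T1280I, K1846T) luciferase replicon cells, 8000/well, exposed 3 days at 37° C. to 6-point 5-fold dilutions (top 100, 10 or 1 nM; 0.5% DMSO), in duplicate. Bright-Glo luminescence read; EC50 from nonlinear fit of % inhibition.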

[2] = system: HCV genotype 1b (HCV-1b) replicon cells; assay: HCV genotype 1b replicon luciferase assay (EC50); format: cell-based, hepatitis C virus genotype 1b (Con1 clone); conditions: 3 days, luciferase (Bright-Glo)
Outline: as §1

HCV-1b replicon cells = assay: Cell Titer-fluor cell activity assay in HCV-1b replicon cells (CC50); format: cell-based; conditions: 3 days
Outline: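 Con1 genotype 1b replicon cells (E1202G, T1280I, K1846T adaptive mutations), 8000 cells/well, exposed to 6-point 5-fold dilutions from 100, 10 or 1 nM top concentration in 0.5% DMSO, duplicate wells, 3 days at 37 °C. Viability read by Cell Titer-fluor (Ex 405/Em 515 nm) after 30 min; CC50 from nonlinear fit of inhibition %.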

Row | SMILES | EC50 [1] [nM] | EC50 [2] [nM] | CC50 (HCV-1b replicon cells) [nM]
1 | COC(=O)NC(C(=O)N1CCCC1c1[nH]c(-c2ccc(-c3ccc(-c4cnc([C@@H]5CCCN5C(=O)[C@@H](NC(=O)OC)C(C)C)[nH]4)cc3)cc2)c2c1CCC2)C1CCOC1 (single isomer, unassigned) [AG_025_C] | 10 to 100 | 0.101 to 1 | > 10
2 | COC(=O)N[C@H](C(=O)N1CCC[C@H]1c1ncc(-c2ccc(-c3ccc(-c4cnc(C5C6CCC(C6)[C@@H]5C(=O)N[C@H](C)c5cccnc5)[nH]4)cc3)cc2)[nH]1)[C@@H](C)OC (single isomer, unassigned) [AA_253_C] | 10 to 100 | 1 to 10 | > 1
3 | COC(=O)NC(C(=O)N1CCCC1c1[nH]c(-c2ccc(-c3ccc(-c4cnc([C@@H]5CCCN5C(=O)[C@@H](NC(=O)OC)C(C)C)[nH]4)cc3)cc2)c2c1CCC2)C1CCOC1 (single isomer, unassigned) [AG_025_B] | 10 to 100 | 0.001 to 0.1 | > 10
4 | COC(=O)N[C@H](C(=O)N1CCC[C@H]1c1ncc(-c2ccc(-c3ccc(-c4cnc(C5C6CCC(C6)[C@@H]5C(=O)NC(C)c5cnccn5)[nH]4)cc3)cc2)[nH]1)[C@@H](C)OC (single isomer, unassigned) [AA_281_C] | 1 to 10 | 0.101 to 1 | > 1
5 | COC(=O)N[C@H](C(=O)N1CCCC1c1ccc(-c2ccc(-c3ccc(-c4cnc(C5CCCN5C(=O)[C@@H](NC(=O)OCCF)C(C)C)[nH]4)cc3)cc2)[nH]1)C(C)C (stereo partly drawn) [AG_062] | 10 to 100 | 0.101 to 1 | > 10
